From patent US9868715B2 (THE BOARD OF REGENTS OF THE UNIVERSITY OF TEXAS SYSTEMS, priority 2014, dated 2018)
“Also recorded” adds a separate entry of the source.

Experiments:
[1] = test system: C57BL/6 mice with cerulein-induced CP; experiment: Chronic pancreatitis (CP) animal model, fibronectin IHC; assay type: in vivo; details: 0.5 mg/kg daily oral gavage, 3 weeks
Protocol: In order to evaluate the anti-fibrotic effect of these new compounds as a proof-of-concept, the compounds were tested in a preclinical animal model of CP. CP was induced in mice using the well-established model of repeated cerulean (CR) injections (Lerch and Gorelick 2013, Gastroenterology 144:1180; Aghdassi et al. 2011, Fibrogenesis Tissue Repair 4:26). […] After four weeks, the pancreata were processed and stained for fibronectin, which is a major component of the ECM. […] ImageJ analysis of the slides quantified the significant decrease in fibrosis (p<0.001) (FIG. 4E).
Chronic pancreatitis (CP) animal model. Animal experiments were conducted under an Institutional Animal Care and Use Committee-approved protocol. CP was induced in C57BL/6 mice using supraoptimal pancreatic stimulation with cerulein (CR), a cholecystokinin analogue (Bachem, Torrance, Calif.). CP (50 μg CR/kg mouse weight) was administered via intraperitoneal route hourly for 5 h for 3 d/week for a total of 4 weeks. Control mice received phosphate buffered saline (PBS) injections following the same schedule. […] At the end of Week 4, the mice were anesthestized with isoflurane and sacrificed per protocol. The pancreata were quickly harvested and processed.
Immunohistochemistry (IHC) and image analysis. Pancreata were formalin-fixed and paraffin-embedded. Prior to staining, sections (5 μm) were deparaffinized with xylene, dehydrated with ethanol, and subjected to heat-mediated antigen retrieval (DAKO, Carpinteria, Calif.) to optimize antigen immunoreactivity. Fibronectin antibody (1:600; Santa Cruz Biotechnology, Dallas, Tex.), and biotinylated anti-goat IgG (1:400; Vector Laboratories Inc., Burlingame, Calif.) were used. […] The percent area of brown fibronectin staining was quantified using the Image Processing and Analysis in Java (ImageJ) 1.46r software (NIH, Bethesda, Md.) and a color deconvolution plug-in (Ruifrok and Johnston, Anal Quant Cytol Histol 2001, 23:291; Schneider et al., Nat Methods 2012, 9:671).

[2] = biological target: T1, human CBS (cystathionine-β-synthase) (Homo sapiens, UniProt P35520); experiment: H2S production by recombinant CBS; assay type: biochemical; details: 100 μM compound; H2S production as % of control (100%)
T1 construct: GST (N); made in house; host or cells: E. coli BL21(DE3) Codon Plus
T1 sequence (P35520 1-551): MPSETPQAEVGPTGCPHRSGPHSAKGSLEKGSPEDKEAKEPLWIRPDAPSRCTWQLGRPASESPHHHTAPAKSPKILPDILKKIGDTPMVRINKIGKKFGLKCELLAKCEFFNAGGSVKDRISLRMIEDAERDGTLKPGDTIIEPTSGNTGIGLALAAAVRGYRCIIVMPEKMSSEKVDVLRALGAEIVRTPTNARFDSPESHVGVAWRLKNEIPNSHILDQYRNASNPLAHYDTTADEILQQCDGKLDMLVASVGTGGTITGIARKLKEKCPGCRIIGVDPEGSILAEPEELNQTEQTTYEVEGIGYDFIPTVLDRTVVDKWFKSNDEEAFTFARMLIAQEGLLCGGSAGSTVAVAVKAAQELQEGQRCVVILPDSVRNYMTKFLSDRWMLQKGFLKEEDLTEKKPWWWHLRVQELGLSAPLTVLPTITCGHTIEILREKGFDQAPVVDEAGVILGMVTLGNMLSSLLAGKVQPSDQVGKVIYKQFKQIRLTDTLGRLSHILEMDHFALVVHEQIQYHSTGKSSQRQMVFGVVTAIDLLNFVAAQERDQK
Protocol: Recombinant human CBS protein expression and purification. The expression and purification of human CBS was performed as described previously (Asimakopoulou et al. 2013, Br J Pharmacol. 169(4):922-32). Briefly, E. Coli BL21(DE3) Codon Plus cells (Stratagene, La Jolla, Calif., USA) containing the expression vector pGEX-Kg/GST-CBS were grown at 37° C. and 180 rpm in LuriaBertani (LB) broth medium containing 100 μg/ml ampicillin to an absorption of 0.6-0.8 at 600 nm. Protein expression was induced by addition of 0.1 mM IPTG (isopropyl-b-D-thiogalactopyranoside) and cells were further incubated at 30° C. overnight. The bacteria were harvested and sonicated in lysis buffer PBS (140 mM NaCl, 2.7 mM KCl, 10 mM Na2HPO4, 1.8 mM KH2PO4, pH 7.8) containing a protease inhibitors cocktail (Sigma). The protein lysate was loaded onto a GSTrap FF 1 ml affinity column (Amersham Biosciences) and the GST-CBS recombinant protein was eluted with the elution buffer (50 mM Tris-HCl, 10 mM reduced glutathione, pH 8.0) and then dialyzed and concentrated in 10 mM sodium phosphate buffer (pH 8.2) and DTT (1 mM).
Measurement of H2S production by recombinant CBS. The measurement of H2S production by recombinant CBS enzyme was performed as described (Asimakopoulou et al. 2013, Br J Pharmacol. 169(4):922-32). Briefly, each test consisted of a 100 μl reaction mixture in 50 mM sodium phosphate buffer pH 8.2 containing 1 μg of the purified human CBS enzyme, 0.01 mM pyridoxal-5′-phosphate (PLP), 10 mM L-cysteine and 0.5 mM homocysteine. […] The reaction was initiated by transferring the Eppendorf tubes from ice to a 37° C. shaking water bath. After 60 minutes of incubation at 37° C., the reaction was terminated by adding 1% ZnAc followed by 10% trichloroacetic acid. Subsequently, N,N-dimethylphenylendiamine sulfate (20 mM in 7.2 M HCl) and FeCl3 (30 mM in 1.2 M HCl) were added and the optical absorbance of the solutions was measured at 650 nm.

[3] = Aqueous solubility by HPLC analysis method; assay type: physicochemical; details: in the form of HCl salt

Row | Compound | Pancreatic fibrosis in CP model (fibronectin stain), result in words [1] | activity at 100 µM [2] [%] | Aqueous solubility compared with apigenin, result in words [3] | Aqueous solubility, saturated concentration [3] [mg/mL]
1 | O=c1cc(-c2ccc(O)cc2)oc2cc(O)cc(O)c12 [Apigenin, 4′,5,7-trihydroxyflavone, reference compound] | significantly decreased the stromal fibrosis of CP; also recorded: significantly reduced the fibrotic response; also recorded: significant efficacy to reduce pancreatic fibrosis | 80.8 | – | –
2 | COc1cc(OC)c2c(=O)cc(-c3ccc(OCC4CO4)cc3)oc2c1 (centres unmarked) [Compound 23, 5,7-Dimethoxy-2-(4-oxiranylmethoxyphenyl)-chromen-4-one] | as efficacious as apigenin in reducing pancreatic fibrosis; also recorded: significantly decreased the stromal fibrosis of CP; also recorded: significantly reduced the fibrotic response; also recorded: significant efficacy to reduce pancreatic fibrosis | 119 | – | –
3 | COc1cc(OC)c2c(=O)cc(-c3ccc(OCC(O)CN4CCCCC4)cc3)oc2c1 (centres unmarked) [Compound 24, 2-(4-(2-Hydroxy-3-piperidin-1-yl-propoxy)phenyl)-5,7-dimethoxy-chromen-4-one] | as efficacious as apigenin in reducing pancreatic fibrosis; also recorded: significantly decreased the stromal fibrosis of CP; also recorded: significantly reduced the fibrotic response; also recorded: significant efficacy to reduce pancreatic fibrosis | 79 | significantly improved solubility | 84.1
